Results as given in PubChem BioAssay AID2060891 (Molecular Pharmacology Branch, DTP, NCI, 2025).
Where “and” joins values, the source holds several entries; their conditions need not be identical. Equal values may be shown once.

System: K98450-129-R-PDC complex spheroid growth, percent test/control
Test: Anticancer human tumor K98450-129-R-PDC patient-derived colon adenocarcinoma cell line growth inhibition [RAS]
Details: for viability, T/C: stronger effect = lower value
Excerpt: RAS pathway inhibitors in Combinations in Complex Spheroids
A high-throughput screen of multi-cell type tumor spheroids was designed to identify active combinations of RAS pathway inhibitors and targeted small molecules. Complex spheroids include a stromal component modeled by human endothelial cells (HUVEC) and fibroblasts modeled by human mesenchymal stem cells (MSCs). The concentration ranges selected for each drug and investigational agent were based upon clinically achievable concentrations if the clinical Cmax of the agent was known.
Compounds. The drugs and investigational agents: abemaciclib (NSC768073), cobimetinib (NSC768068), divarasib (GDC6063, NSC841802), docetaxel (NSC628503), GDC-1971 (RLY-1971, NSC841576), gemcitabine (NSC613327), inavolisib (NSC800729), ipatasertib (NSC767898), KB-0742 (NSC834161), MRTX-1133 (NSC836407), osimertinib (NSC779217), RMC-4630 (NSC839698), RMC-6236 (NSC851965), RMC-6291 (NSC852671), Ro-3306 (NSC812927), sapanisertib (NSC764658), SN-38 (NSC673596), staurosporine (NSC755774), SY5609 (NSC837396), and tovorafenib (DAY101, NSC766906), were obtained from the National Cancer Institute (NCI) Developmental Therapeutics Program Chemical Repository. The FDA-approved anticancer drug set is available from the NCI Developmental Therapeutics Program. […] The stock solutions were prepared in dimethyl sulfoxide (DMSO, Sigma-Aldrich, St. Louis, MO, cat. D2650) at 800-fold the tested concentration and stored at -70 degrees C prior to their use. All drugs and investigational agents were tested over a range starting from a high concentration at or near the clinical Cmax and decreasing in half-log increments. If the clinical Cmax for an agent had not been determined, the highest concentration tested was 10 microM.
Cell Culture. All cells were maintained in an incubator at 37 degrees C and 5% CO2 with 95% humidity. The PDC lines were cultured according to standard operating procedures established by the NCI PDMR. All PDCs were thawed and cultured in Matrigel-coated flasks prepared with a working solution of 1X Ham's F-12 nutrient mix, without supplementation (Invitrogen, Waltham, MA, cat. 11765054), 100 U/mL penicillin-streptomycin (Invitrogen, cat. 15140122), and 2.5% Matrigel (Corning Inc., Corning, NY, cat. 354248) for the first three passages. The 362531-283-R-J2-PDC and 782815-120-R-J1-PDC lines were cultured in 6C/Colon 1B media, which includes advanced DMEM/F-12 (Thermo Fisher Scientific, cat. 12634028), 10 mM HEPES (Thermo Fisher Scientific, cat. 15630080), 1X GlutaMAX supplement (Thermo Fisher Scientific, cat. 35050061), 0.1 mg/mL primocin (InvivoGen, San Diego, CA, cat. ant-pm-2), 10% defined fetal bovine serum, heat inactivated (HyClone Laboratories Inc., Logan, UT, cat. SH30070.03HI), 50% L-WRN conditioned media (ATCC, cat. CRL-3276), 1.25 mM N-Acetyl-L-cysteine (Sigma-Aldrich, cat. A9165), 10 mM nicotinamide (Sigma-Aldrich, cat. N0636), 1X B-27 supplement (Thermo Fisher Scientific, cat. 17504044), 1X N-2 supplement (Thermo Fisher Scientific, cat. 17502048), 50 ng/mL human EGF (Thermo Fisher Scientific, cat. PHG0311), and 10 microM Y-27632 dihydrochloride (Tocris Bioscience, cat. 1254). The K12877-001-R-J1-PDC line was cultured in 6I media, which includes all 6C/Colon 1B media plus 10 ng/mL human FGF-10 (PeproTech, cat. 100-26), 1 ng/mL human FGF-2 (PeproTech, cat. 100-18B), 1 µM prostaglandin E2 (Tocris Bioscience, cat. 2296), […] hydrocortisone (Sigma-Aldrich, cat. H4001), and […] bovine insulin (Sigma-Aldrich, cat. I6634). The K86415-001-R-J1-PDC line was cultured in 6D media, which includes all 6C/Colon 1B media components minus the L-WRN conditioned media. The 485176-168-R4-J1-PDC was cultured in PANC media, which includes all 6C/Colon 1B media plus 100 ng/mL human FGF-10 (PeproTech, cat. 100-26), 500 nM SB-431542 (Selleckchem, cat. S1067), and 10 nM gastrin (Tocris Bioscience, cat. 3006). […]

[1] = compound alone, run of 06/10/2024
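Also: spheroids exposed to agents for seven days before the viability readout.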
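For viability, T/C in this document: luminescence used as a proxy for viable cell amount.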

`C#Cc1c(F)ccc2cc(O)cc(-c3ncc4c(N5CC6CCC(C5)N6)nc(OCC56CCCN5CC(F)C6)nc4c3F)c12` (stereo not drawn) was tested, and the viability, T/C (compound 0.0316 µM) was 106% [middle of 8 runs], the viability, T/C (compound 0.1 µM) was 105% [middle of 7 runs] and the viability, T/C (compound 0.316 µM) was 105% [middle of 8 runs]. For the same compound, the viability, T/C (compound 1 µM) was 102% [middle of 8 runs], the viability, T/C (compound 3.16 µM) was 102% [middle of 8 runs] and the viability, T/C (compound 10 µM) was 95.1% [middle of 8 runs]. For the same compound, the IC50 [1] was greater than 10000 nM.

With `C=CC(=O)N1CCN(c2nc(OCC3CCCN3C)nc3c(F)c(-c4nc(N)cc(C)c4C(F)(F)F)c(Cl)cc23)C(C)C1` (stereo not drawn) the viability, T/C (compound 0.00316 µM) was 97.9% [middle of 12 runs], the viability, T/C (compound 0.01 µM, compound 0.0316 µM) was 70.9% and the viability, T/C (compound 0.01 µM, compound 0.1 µM) was 59.3%. It also gave a viability, T/C (compound 0.01 µM, compound 0.316 µM) of 39.6%, a viability, T/C (compound 0.01 µM, compound 1 µM) of 29% and a viability, T/C (compound 0.0316 µM, compound 0.00316 µM) of 71.2%. The viability, T/C (compound 0.0316 µM, compound 0.01 µM) was 65.5%, the viability, T/C (compound 0.0316 µM, compound 0.1 µM) was 51.4% and the viability, T/C (compound 0.0316 µM, compound 0.316 µM) was 42.2%. The viability, T/C (compound 0.0316 µM, compound 1 µM) was 28.1%, the viability, T/C (compound 0.0316 µM) was 71.5% [middle of 13 runs] and the viability, T/C (compound 0.1 µM, compound 0.00316 µM) was 54.4%. For the same compound, the viability, T/C (compound 0.1 µM, compound 0.01 µM) was 52.5%, the viability, T/C (compound 0.1 µM, compound 0.0316 µM) was 56.5% and the viability, T/C (compound 0.1 µM, compound 0.316 µM) was 41.4%. The viability, T/C (compound 0.1 µM, compound 1 µM) was 30.8%, the viability, T/C (compound 0.1 µM) was 53.1% [middle of 13 runs] and the viability, T/C (compound 0.316 µM, compound 0.00316 µM) was 40.9%. For the same compound, the viability, T/C (compound 0.316 µM, compound 0.01 µM) was 38.6%, the viability, T/C (compound 0.316 µM, compound 0.0316 µM) was 43.2% and the viability, T/C (compound 0.316 µM, compound 0.1 µM) was 38.7%. The viability, T/C (compound 0.316 µM, compound 1 µM) was 31.3%, the viability, T/C (compound 0.316 µM) was 40.2% [middle of 13 runs] and the viability, T/C (compound 1 µM, compound 0.00316 µM) was 31.1%. It also gave a viability, T/C (compound 1 µM, compound 0.01 µM) of 35.5%, a viability, T/C (compound 1 µM, compound 0.0316 µM) of 31.5% and a viability, T/C (compound 1 µM, compound 0.1 µM) of 30.9%. For the same compound, the viability, T/C (compound 1 µM, compound 0.316 µM) was 33.1%, the viability, T/C (compound 1 µM) was 34% [middle of 13 runs] and the IC50 [1] was 148 nM [middle of 8 runs]. For the same compound, the IC50 (curve of compound) was 144 nM [middle of 4 runs].

In the case of `C=CC(=O)Nc1cc(Nc2nccc(-c3cn(C)c4ccccc34)n2)c(OC)cc1N(C)CCN(C)C`, the viability, T/C (compound 0.00316 µM) is reported as 102% (2×) and 95.4% and 104%, the viability, T/C (compound 0.01 µM) is reported as 96.2% [middle of 4 runs] and the viability, T/C (compound 0.1 µM) is reported as 100% [middle of 4 runs]. For the same compound, the viability, T/C (compound 0.316 µM) was 70.7% [middle of 4 runs], the viability, T/C (compound 1 µM) was 36% [middle of 4 runs] and the IC50 (curve of compound) was 633 nM [middle of 4 runs].

With `CC(C)n1nc(-c2ccc3oc(N)nc3c2)c2c(N)ncnc21` the viability, T/C (compound 0.000316 µM) was 106% [middle of 4 runs], the viability, T/C (compound 0.001 µM) was 90.9% [middle of 4 runs] and the viability, T/C (compound 0.00316 µM) was 93.6% [middle of 4 runs]. For the same compound, the viability, T/C (compound 0.01 µM) was 96.8% [middle of 4 runs], the viability, T/C (compound 0.0316 µM) was 79.8% [middle of 4 runs] and the viability, T/C (compound 0.1 µM) was 78.4% (2×) and 86.4% and 72.6%. The IC50 (curve of compound) was greater than 100 nM.

`CC(Nc1ccc2c(c1)OCCn1cc(N3C(=O)OCC3C(F)F)nc1-2)C(N)=O` (stereo not drawn) was tested, and the viability, T/C (compound 0.0316 µM) was 99.5% [middle of 4 runs], the viability, T/C (compound 0.1 µM) was 91.6% [middle of 4 runs] and the viability, T/C (compound 0.316 µM) was 91.2% [middle of 4 runs]. The viability, T/C (compound 1 µM) was 88.9% [middle of 4 runs], the viability, T/C (compound 3.16 µM) was 81.3% [middle of 4 runs] and the viability, T/C (compound 10 µM) was 73.7% [middle of 4 runs]. The IC50 (curve of compound) was greater than 10000 nM.

In the case of `CC1(C)CCC(Nc2ncc(C(F)(F)F)c(-c3c[nH]c4c(P(C)(C)=O)c(C#N)ccc34)n2)CN1` (stereo not drawn), the viability, T/C (compound 0.000949 µM) is reported as 105% [middle of 4 runs], the viability, T/C (compound 0.003 µM) is reported as 105% (2×) and 98.6% and 96.4% and the viability, T/C (compound 0.00949 µM) is reported as 106% [middle of 4 runs]. The viability, T/C (compound 0.03 µM) was 107% (2×) and 109% and 99.9%, the viability, T/C (compound 0.0949 µM) was 94.4% [middle of 4 runs] and the viability, T/C (compound 0.3 µM) was 86.1% [middle of 4 runs]. For the same compound, the IC50 (curve of compound) was greater than 300 nM.

With `CCN1CCN(Cc2ccc(Nc3ncc(F)c(-c4cc(F)c5nc(C)n(C(C)C)c5c4)n3)nc2)CC1` the viability, T/C (compound 0.00316 µM) was 103% [middle of 4 runs], the viability, T/C (compound 0.01 µM) was 99.4% [middle of 4 runs] and the viability, T/C (compound 0.0316 µM) was 96.8% [middle of 4 runs]. The viability, T/C (compound 0.1 µM) was 97.3% [middle of 4 runs] and the IC50 (curve of compound) was greater than 1000 nM.

With `CCc1c2c(nc3ccc(O)cc13)-c1cc3c(c(=O)n1C2)COC(=O)[C@]3(O)CC` the viability, T/C (compound 0.000949 µM) was 104% [middle of 4 runs], the viability, T/C (compound 0.003 µM) was 97.8% [middle of 4 runs] and the viability, T/C (compound 0.00949 µM) was 92.5% [middle of 4 runs]. For the same compound, the viability, T/C (compound 0.03 µM) was 69% [middle of 4 runs], the viability, T/C (compound 0.3 µM) was 49.5% [middle of 4 runs] and the IC50 (curve of compound) was 48.9 nM and > 300 nM and 43.1 nM.

For `CCn1c(-c2cc(N3CCN(C)CC3)cnc2C(C)OC)c2c3cc(ccc31)-c1csc(n1)CC(NC(=O)C1CC1C)C(=O)N1CCCC(N1)C(=O)OCC(C)(C)C2` (stereo not drawn), the viability, T/C (compound 0.000949 µM) was 93.1% [middle of 8 runs], the viability, T/C (compound 0.003 µM) was 86.4% [middle of 8 runs] and the viability, T/C (compound 0.03 µM) was 56.8% [middle of 8 runs]. For the same compound, the viability, T/C (compound 0.0949 µM) was 23.6% [middle of 8 runs], the viability, T/C (compound 0.3 µM) was 14.1% [middle of 8 runs] and the IC50 (compound alone, run of 05/20/2024) was 35 nM [middle of 8 runs].

`CCn1c(-c2cccnc2C(C)OC)c2c3cc(ccc31)N1CCOC(CC(NC(=O)C(C(C)C)N(C)C(=O)C3(F)CCN(C(=O)C#CC(C)(C)N(C)C)CC3)C(=O)N3CCCC(N3)C(=O)OCC(C)(C)C2)C1` (stereo not drawn) was tested, and the viability, T/C (compound 0.000949 µM) was 78.5% [middle of 8 runs], the viability, T/C (compound 0.003 µM) was 63.4% [middle of 8 runs] and the viability, T/C (compound 0.00949 µM) was 47.8% [middle of 8 runs]. The viability, T/C (compound 0.03 µM) was 43.1% [middle of 8 runs], the viability, T/C (compound 0.0949 µM) was 41.6% [middle of 8 runs] and the viability, T/C (compound 0.3 µM) was 35.3% [middle of 8 runs].

In the case of `Nc1ccn(C2OC(CO)C(O)C2(F)F)c(=O)n1` (stereo not drawn), the viability, T/C (compound 0.00316 µM) is reported as 80.7% and 103% (2×) and 107%, the viability, T/C (compound 0.01 µM) is reported as 96.2% [middle of 4 runs] and the viability, T/C (compound 0.0316 µM) is reported as 78.8% [middle of 4 runs]. The viability, T/C (compound 1 µM) was 49.4% [middle of 4 runs].

`O=C(c1ccc(F)c(F)c1Nc1ccc(I)cc1F)N1CC(O)([C@@H]2CCCCN2)C1` was tested, and the viability, T/C (compound 0.00316 µM) was 103% [middle of 4 runs], the viability, T/C (compound 0.0316 µM) was 97.5% [middle of 4 runs] and the viability, T/C (compound 0.1 µM) was 82.3% [middle of 4 runs]. For the same compound, the viability, T/C (compound 0.316 µM) was 21.8% [middle of 4 runs], the viability, T/C (compound 1 µM) was 3.22% [middle of 4 runs] and the IC50 (curve of compound) was 190 nM [middle of 4 runs].
